Values quoted from earlier work as cited in patent publication US20080305186A1, “Method and Composition for the Treatment of Cardiac Hypertrophy” (BOARD OF REGENTS, THE UNIVERSITY OF TEXAS SYSTEM, priority 2007, published 2008).

What was measured:
[1] = tested on: Histone Deacetylase; settings: cited from earlier work
[2] = tested on: isoproterenol-, angiotensin II- and aortic banding induced cardiac hypertrophy; settings: cited from earlier work

## CCCC(CCC)C(=O)O [valproic acid]
[1]
  inhibition of Histone Deacetylase (HDAC): inhibit HDAC
[2]
  attenuation of cardiac hypertrophy: attenuate
